Values quoted from earlier work, collected in EP4778943A1, “LONG-ACTING PARATHYROID HORMONE RECEPTOR AGONIST FUSION PROTEIN AND USE THEREOF” (Shanghai Btd-Bio Technology Co., Ltd., priority 2023, dated 2025).
Where no end group is shown, it is not given here.

Assays:
[1] = test system: TPTx (parathyroidectomy) rat model; conditions: daily 1.2 nmol/kg (low dose) and 2.4 nmol/kg (high dose), after 4 weeks, versus model group; cited from earlier work
[2] = continuous administration once a day for 6 months; cited from earlier work
mice = conditions: continuous infusion 80 µg/kg BW/day for 2 weeks; cited from earlier work

Molecule | bone mineral density [1] | bone mineral density of L2-L4, increase [2] | bone mineral density (mice)
TransCon PTH: long-acting PTH, generic name palopegteriparatide, trade name Yorvipath (SVSEIQLMHNLGKHLNSMERVEWLRKKLQDVHNF; also: PEG carrier attached via prodrug linker, site not given here; UniProt P01270 32-65, looked up, fragment) | significantly decreased |  | 
CC[C@H](C)[C@H](NC(=O)[C@H](CCC(=O)O)NC(=O)[C@H](CO)NC(=O)[C@@H](NC(=O)[C@@H](N)CO)C(C)C)C(=O)N[C@@H](CCC(N)=O)C(=O)N[C@@H](CC(C)C)C(=O)N[C@@H](CCSC)C(=O)N[C@@H](Cc1c[nH]cn1)C(=O)N[C@@H](CC(N)=O)C(=O)N[C@@H](CC(C)C)C(=O)NCC(=O)N[C@@H](CCCCN)C(=O)N[C@@H](Cc1c[nH]cn1)C(=O)N[C@@H](CC(C)C)C(=O)N[C@@H](CC(N)=O)C(=O)N[C@@H](CO)C(=O)N[C@@H](CCSC)C(=O)N[C@@H](CCC(=O)O)C(=O)N[C@@H](CCCNC(=N)N)C(=O)N[C@H](C(=O)N[C@@H](CCC(=O)O)C(=O)N[C@@H](Cc1c[nH]c2ccccc12)C(=O)N[C@@H](CC(C)C)C(=O)N[C@@H](CCCNC(=N)N)C(=O)N[C@@H](CCCCN)C(=O)N[C@@H](CCCCN)C(=O)N[C@@H](CC(C)C)C(=O)N[C@@H](CCC(N)=O)C(=O)N[C@@H](CC(=O)O)C(=O)N[C@H](C(=O)N[C@@H](Cc1c[nH]cn1)C(=O)N[C@@H](CC(N)=O)C(=O)N[C@@H](Cc1ccccc1)C(=O)O)C(C)C)C(C)C [teriparatide] |  | about 5% | significant decrease
Abaloparatide |  |  | significant decrease
